Where a name gives a salt, the structure may show the parent alone.
How the values were obtained:
RET (V804M) kinase = RET (V804M) kinase (Homo sapiens, UniProt P07949, V804M); assay: In-vitro enzyme activity test, RET (V804M) kinase; assay type: biochemical; details: ATP 30 μM; 10 concentrations 3 μM to 0.152 nM
Procedure: (§1) The enzyme activity was detected by a Z′-LYTE™ kinase test, and inhibitory effects of the compounds onRET and RET (V804M) kinases were evaluated with an ICs value of each compound as an index.
(§2) The compounds used for RET and RET (V804M) kinase tests were diluted 3-fold, in 10 concentration gradients ranging from 3 μM to 0.152 nM; and the content of DMSO in detection reaction was 1%.
(§3) Basic reaction buffer, 20 mM 4-(2-hydroxyethyl)piperazine-1-ethanesulfonic acid (Hepes) buffer (pH 7.5), 10 mM MgCl2. 1 mM 1,2-bis[2-[bis(carboxymethyl)amino]ethoxy]ethane (EGTA), 0.02% polyoxyethylene lauryl ether (Brij35), 0.02 mg/mL bovine serum albumin, 0.1 mM of Na3VO4, 2 mM dithiothreitol (DTT) and 1% DMSO.
(§4) The compounds to be tested were dissolved in a 100% DMSO system to be diluted to 10 mM for further use. The solution was diluted by using Integra Viaflo Assist.
(§5) Test conditions: concentrations of RET kinase, peptide substrate CHKtide and adenosine triphosphate (ATP) were […], 1000 μM and 20 μM, respectively, and concentrations of RET (V804M) kinase, substrate peptide and ATP were […], 1000 μM and 30 μM, respectively.
(§6) Reaction process: compound solutions of different concentrations were added to a kinase/peptide solution prepared according to the test conditions, the obtained solution was incubated at room temperature for 20 minutes, and then 33P-ATP of corresponding concentrations were added, and the obtained solution was incubated at room temperature for 120 minutes. The radioactivity was detected by a filter-binding method.
(§7) The reaction was terminated by adding phosphoric acid (concentration, 0.5%) into a kinase reaction solution, and plate reading was carried out with an Envision instrument.
(§8) Data were converted into phosphorylation rate and inhibition rate, and the parametric curve was fitted by using GraphPad Software to obtain IC50 data of the compounds.

RET kinase = RET kinase (Homo sapiens, UniProt P07949); assay: In-vitro enzyme activity test, RET kinase; assay type: biochemical; details: ATP 20 μM; 10 concentrations 3 μM to 0.152 nM
RET kinase, sequence (P07949 29-1114): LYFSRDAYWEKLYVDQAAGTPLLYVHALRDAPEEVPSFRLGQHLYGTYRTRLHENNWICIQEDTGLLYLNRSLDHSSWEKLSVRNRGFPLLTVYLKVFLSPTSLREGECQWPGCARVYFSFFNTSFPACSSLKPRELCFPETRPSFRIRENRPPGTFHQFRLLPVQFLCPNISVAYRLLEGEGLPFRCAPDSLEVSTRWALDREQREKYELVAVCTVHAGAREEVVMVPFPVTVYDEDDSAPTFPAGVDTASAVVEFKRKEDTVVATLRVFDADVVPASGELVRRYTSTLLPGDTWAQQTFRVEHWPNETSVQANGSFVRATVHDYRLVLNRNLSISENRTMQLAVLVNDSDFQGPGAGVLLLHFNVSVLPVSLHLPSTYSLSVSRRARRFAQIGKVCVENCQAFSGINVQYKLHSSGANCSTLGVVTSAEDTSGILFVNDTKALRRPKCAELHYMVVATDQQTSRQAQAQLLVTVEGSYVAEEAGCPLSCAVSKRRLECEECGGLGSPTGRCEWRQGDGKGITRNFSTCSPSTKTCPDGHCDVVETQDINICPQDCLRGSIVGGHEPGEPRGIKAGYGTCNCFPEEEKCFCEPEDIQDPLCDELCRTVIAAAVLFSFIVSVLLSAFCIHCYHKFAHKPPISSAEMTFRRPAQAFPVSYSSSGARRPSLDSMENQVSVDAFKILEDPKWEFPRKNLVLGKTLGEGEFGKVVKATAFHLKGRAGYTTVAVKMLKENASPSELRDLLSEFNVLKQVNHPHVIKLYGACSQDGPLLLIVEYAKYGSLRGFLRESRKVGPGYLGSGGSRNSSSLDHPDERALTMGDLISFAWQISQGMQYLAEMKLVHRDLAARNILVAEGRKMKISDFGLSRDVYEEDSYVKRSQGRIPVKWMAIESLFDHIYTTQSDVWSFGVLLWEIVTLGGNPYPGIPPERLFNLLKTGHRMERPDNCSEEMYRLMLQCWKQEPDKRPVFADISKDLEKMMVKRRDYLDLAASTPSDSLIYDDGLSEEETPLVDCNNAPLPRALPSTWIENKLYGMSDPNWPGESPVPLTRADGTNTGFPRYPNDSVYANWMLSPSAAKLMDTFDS
Procedure: as §1, §2, §3, §4, §5, §6, §7, §8

RET (V804M) kinase, sequence (P07949 29-1114 V804M): as the sequence (P07949 29-1114) above, with V776M counted along it

SMILES	IC50 (RET (V804M) kinase)	IC50 (RET kinase)
N#Cc1cnn2cc(C3CC3)cc(-c3ccc(N4CCN(Cc5c(F)cccc5F)CC4)nc3)c12 [Compound 1]	36.1 nM	3.66 nM
N#Cc1cnn2cc(N3CCOCC3)cc(-c3ccc(N4CC5CC(C4)N5Cc4cnc5[nH]ccc5c4Cl)nc3)c12 [Compound 16]	–	6.08 nM
N#Cc1cnn2cc(C3=CCOCC3)cc(-c3ccc(N4CC5CC(C4)N5Cc4cnc5[nH]ccc5c4)nc3)c12 [Compound 35]	5.47 nM	1.57 nM
COc1cnc(CN2C3CC2CN(c2ccc(-c4cc(C5=CCOCC5)cn5ncc(C#N)c45)cn2)C3)cn1 [Compound 36]	3.79 nM	1.22 nM
N#Cc1cnn2cc(C3=CCOCC3)cc(-c3ccc(N4CC5CC(C4)N5Cc4ccc5[nH]cnc5c4)nc3)c12 [Compound 37]	15.6 nM	2.3 nM
N#Cc1cnn2cc(C3=CCOCC3)cc(-c3ccc(N4CC5CC(C4)N5Cc4ccc5[nH]ccc5c4)nc3)c12 [Compound 38]	5.93 nM	1.21 nM
COc1ccc(CN2C3CC2CN(c2ccc(-c4cc(C5=CCNC(C)C5)cn5ncc(C#N)c45)cn2)C3)cn1 (stereo not drawn) [Compound 41]	11.3 nM	3.09 nM
N#Cc1cnn2cc(C3=CCOCC3)cc(-c3cnc(N4CC5CC(C4)N5Cc4ccc5[nH]ccc5c4)cn3)c12 [Compound 45]	7.53 nM	1.83 nM
COc1ccc(CN2C3CC2CN(c2ccc(-c4cc(C5=CC(C)(C)OCC5)cn5ncc(C#N)c45)cn2)C3)cn1 [Compound 50]	–	1.87 nM
COc1ccc(CN2C3CC2CN(c2ccc(-c4cc(C5=CCOC(C)(C)C5)cn5ncc(C#N)c45)cn2)C3)cn1 [Compound 51]	–	1.73 nM
CN1CCC(c2cc(-c3ccc(N4CCN(Cc5c(F)cccc5F)CC4)nc3)c3c(C#N)cnn3c2)CC1 [Hydrochloride of compound 2]	1410 nM	95.5 nM
C[C@@H](C(=O)N1CCN(c2ccc(-c3cc(N4CCOCC4)cn4ncc(C#N)c34)cn2)CC1)c1ccccc1 [Hydrochloride of compound 4]	22.7 nM	2.42 nM
N#Cc1cnn2cc(C3=CCNCC3)cc(-c3ccc(N4CCN(Cc5c(F)cccc5F)CC4)nc3)c12 [Tfifluoroacetate of compound 25]	11 nM	1.62 nM
CN1CCC(c2cc(-c3ccc(N4CCN(Cc5c(F)cccc5F)CC4)nc3)c3c(C#N)cnn3c2)C1 (stereo not drawn) [Trifluoroacetate of compound 6]	–	34.8 nM
CCN1CCC(c2cc(-c3ccc(N4CCN(Cc5c(F)cccc5F)CC4)nc3)c3c(C#N)cnn3c2)C1 (stereo not drawn) [Trifluoroacetate of compound 7]	1930 nM	239 nM
COc1ccc(CN2C3CC2CN(c2cnc(-c4cc(C5CC5)cn5ncc(C#N)c45)cn2)C3)cn1 [Trifluoroacetate of compound 8]	3.14 nM	1.15 nM
COc1c(F)cc(CN2C3CC2CN(c2ccc(-c4cc(N5CCOCC5)cn5ncc(C#N)c45)cn2)C3)cc1F [Trifluoroacetate of compound 11]	0.61 nM	1.3 nM
COc1ncc(CN2C3CC2CN(c2ccc(-c4cc(N5CCOCC5)cn5ncc(C#N)c45)cn2)C3)cc1F [Trifluoroacetate of compound 15]	–	1.21 nM
CCN1CCN(c2cc(-c3ccc(N4CC5CC(C4)N5Cc4ccc(OC)nc4)nc3)c3c(C#N)cnn3c2)CC1 [Trifluoroacetate of compound 17]	–	5.25 nM
COc1ccc(CN2C3CC2CN(c2ccc(-c4cc(N5CCN(C)C(=O)C5)cn5ncc(C#N)c45)cn2)C3)cn1 [Trifluoroacetate of compound 19]	–	2.35 nM
COc1ccc(CN2C3CC2CN(c2ccc(-c4cc(N5CCC(C)(O)CC5)cn5ncc(C#N)c45)cn2)C3)cn1 [Trifluoroacetate of compound 21]	–	1.98 nM
N#Cc1cnn2cc(C3=CCOCC3)cc(-c3ccc(N4CC5CC(C4)N5Cc4cnc5c(c4)OCO5)nc3)c12 [Trifluoroacetate of compound 44]	–	2.34 nM
COc1ccc(CN2C3CC2CN(c2ccc(-c4cc(C5=CCN(C)CC5)cn5ncc(C#N)c45)cn2)C3)cn1 [Trifluoroacetate of compound 46]	–	1.16 nM
COc1ccc(CN2C3CC2CN(c2ccc(-c4cc(C5=CCNC(C)(C)C5)cn5ncc(C#N)c45)cn2)C3)cn1 [Trifluoroacetate of compound 48]	–	2.13 nM
COc1ccc(CN2C3CC2CN(c2ccc(-c4cc(C5=CCOC5)cn5ncc(C#N)c45)cn2)C3)cn1 [Trifluoroacetate of compound 54]	–	2.42 nM
COc1ccc(CN2C3CC2CN(c2ccc(-c4cc(N5CCC(OC)C5)cn5ncc(C#N)c45)cn2)C3)cn1 (stereo not drawn) [Trifluoroacetate of compound 77]	–	4.39 nM
COc1ccc(CN2C3CC2CN(c2ccc(-c4cc(N5CCC(C)(O)C5)cn5ncc(C#N)c45)cn2)C3)cn1 (stereo not drawn) [Trifluoroacetate of compound 82]	–	2.34 nM
COc1ccc(CN2C3CC2CN(c2ccc(-c4cc(N5CC[C@@H](OC)C5)cn5ncc(C#N)c45)cn2)C3)cn1 [compound 79]	–	1.39 nM

Results, then the compound that gave them:

IC50 (RET (V804M) kinase)	IC50 (RET kinase)	SMILES
–	1.13 nM	COc1ccc(CN2C3CC2CN(c2ccc(-c4cc(C5=CCC(C)(O)CC5)cn5ncc(C#N)c45)cn2)C3)cn1 (stereo not drawn) [Compound 42]
–	1.09 nM	COc1ccc(CN2C3CC2CN(c2ccc(-c4cc(N5CC[C@@H](O)C5)cn5ncc(C#N)c45)cn2)C3)cn1 [Compound 70]
–	0.59 nM	COc1ccc(CN2C3CC2CN(c2ccc(-c4cc(N5CC[C@H](O)C5)cn5ncc(C#N)c45)cn2)C3)cn1 [Compound 71]
–	1.04 nM	COc1ccc(CN2CCN(c3ccc(-c4cc(C5=CCOCC5)cn5ncc(C#N)c45)cn3)CC2)cn1 [Hydrochloride of compound 29]
1.8 nM	0.97 nM	COc1ccc(CN2C3CC2CN(c2ccc(-c4cc(N5CCOCC5)cn5ncc(C#N)c45)cn2)C3)cn1 [Trifluoroacetate of compound 9]
3.79 nM	0.69 nM	COc1ccc(CN2C3CC2CN(c2ccc(-c4cc(N5CCNCC5)cn5ncc(C#N)c45)cn2)C3)cn1 [Trifluoroacetate of compound 10]
0.51 nM	0.61 nM	CC(C)Oc1ccc(CN2C3CC2CN(c2ccc(-c4cc(N5CCOCC5)cn5ncc(C#N)c45)cn2)C3)cn1 [Trifluoroacetate of compound 12]
–	0.9 nM	COc1ccc(CN2C3CC2CN(c2ccc(-c4cc(N5CCN(C(C)=O)CC5)cn5ncc(C#N)c45)cn2)C3)cn1 [Trifluoroacetate of compound 20]
–	0.63 nM	COc1ccc(CN2C3CC2CN(c2ccc(-c4cc(C5=CCC6(CC5)COC6)cn5ncc(C#N)c45)cn2)C3)cn1 [Trifluoroacetate of compound 47]
–	0.96 nM	N#Cc1cnn2cc(C3=CCOCC3)cc(-c3ccc(N4CC5CC(C4)N5Cc4ccc(C(F)(F)F)nc4)nc3)c12 [Trifluoroacetate of compound 56]
–	0.72 nM	N#Cc1cnn2cc(N3CC[C@@H](F)C3)cc(-c3ccc(N4CC5CC(C4)N5Cc4cnc5[nH]ccc5c4)nc3)c12 [Trifluoroacetate of compound 73]
–	0.72 nM	N#Cc1cnn2cc(C3=CCOCC3)cc(-c3ccc(N4CC5CC(C4)N5Cc4ccnc5c4OCO5)nc3)c12 [Triftuoroacetate of compound 43]
–	0.77 nM	COc1ccc(CN2C3CC2CN(c2ccc(-c4cc(N5CC[C@H](OC)C5)cn5ncc(C#N)c45)cn2)C3)cn1 [compound 78]
